Experimental data: ChEMBL document CHEMBL5465560, “Selectivity Literature for EUbOPEN Chemogenomic Library” (2024)
Values belong to the compound of their own block, whether it stands above or below them.

Key:
[1] = biological target: Mitogen-activated protein kinase 1 (Homo sapiens, UniProt P28482); assay: Selectivity interaction (Millipore kinase profiler) EUB0000124b MAPK1; details: at 10 µM
[2] = biological target: T1, Mitogen-activated protein kinase kinase kinase kinase 3 (Homo sapiens) (UniProt Q8IVH8); assay: Selectivity interaction (KinomeScan (DiscoverX)) EUB0000229b MAP4K3; details: at 10 µM
T1 sequence (whole entry): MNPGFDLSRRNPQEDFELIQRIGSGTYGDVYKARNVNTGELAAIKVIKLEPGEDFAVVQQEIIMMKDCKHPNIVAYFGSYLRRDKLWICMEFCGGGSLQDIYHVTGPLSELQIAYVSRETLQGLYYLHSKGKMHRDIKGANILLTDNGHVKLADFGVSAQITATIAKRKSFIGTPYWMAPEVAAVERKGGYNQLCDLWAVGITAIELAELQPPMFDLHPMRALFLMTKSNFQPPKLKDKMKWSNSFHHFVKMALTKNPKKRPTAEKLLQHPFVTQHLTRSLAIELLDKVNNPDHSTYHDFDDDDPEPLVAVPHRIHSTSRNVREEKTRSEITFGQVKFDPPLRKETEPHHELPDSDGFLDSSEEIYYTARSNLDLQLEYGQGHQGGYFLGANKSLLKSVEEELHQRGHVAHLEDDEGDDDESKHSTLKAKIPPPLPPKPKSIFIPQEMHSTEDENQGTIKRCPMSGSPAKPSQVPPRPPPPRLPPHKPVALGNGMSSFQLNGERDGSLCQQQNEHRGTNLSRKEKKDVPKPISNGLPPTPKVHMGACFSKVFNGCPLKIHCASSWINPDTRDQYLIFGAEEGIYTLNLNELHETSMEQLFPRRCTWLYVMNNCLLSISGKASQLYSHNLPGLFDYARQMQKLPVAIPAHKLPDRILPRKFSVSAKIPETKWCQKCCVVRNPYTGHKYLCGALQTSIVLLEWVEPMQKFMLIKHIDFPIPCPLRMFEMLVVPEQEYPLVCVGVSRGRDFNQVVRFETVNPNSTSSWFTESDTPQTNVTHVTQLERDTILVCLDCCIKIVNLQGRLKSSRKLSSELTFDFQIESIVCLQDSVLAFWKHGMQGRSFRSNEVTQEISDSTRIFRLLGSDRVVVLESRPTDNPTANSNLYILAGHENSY

[3] = biological target: Calcium/calmodulin-dependent protein kinase type II subunit gamma (Homo sapiens) (UniProt Q13555); assay: Selectivity interaction (KinomeScan (DiscoverX)) EUB0000092b CAMK2G; details: at 10 µM
[4] = biological target: T2, Cyclin-dependent kinase 11A (Homo sapiens) (UniProt Q9UQ88); assay: Selectivity interaction (KinomeScan (DiscoverX)) EUB0000092b CDK11A; details: at 10 µM
T2 sequence (whole entry): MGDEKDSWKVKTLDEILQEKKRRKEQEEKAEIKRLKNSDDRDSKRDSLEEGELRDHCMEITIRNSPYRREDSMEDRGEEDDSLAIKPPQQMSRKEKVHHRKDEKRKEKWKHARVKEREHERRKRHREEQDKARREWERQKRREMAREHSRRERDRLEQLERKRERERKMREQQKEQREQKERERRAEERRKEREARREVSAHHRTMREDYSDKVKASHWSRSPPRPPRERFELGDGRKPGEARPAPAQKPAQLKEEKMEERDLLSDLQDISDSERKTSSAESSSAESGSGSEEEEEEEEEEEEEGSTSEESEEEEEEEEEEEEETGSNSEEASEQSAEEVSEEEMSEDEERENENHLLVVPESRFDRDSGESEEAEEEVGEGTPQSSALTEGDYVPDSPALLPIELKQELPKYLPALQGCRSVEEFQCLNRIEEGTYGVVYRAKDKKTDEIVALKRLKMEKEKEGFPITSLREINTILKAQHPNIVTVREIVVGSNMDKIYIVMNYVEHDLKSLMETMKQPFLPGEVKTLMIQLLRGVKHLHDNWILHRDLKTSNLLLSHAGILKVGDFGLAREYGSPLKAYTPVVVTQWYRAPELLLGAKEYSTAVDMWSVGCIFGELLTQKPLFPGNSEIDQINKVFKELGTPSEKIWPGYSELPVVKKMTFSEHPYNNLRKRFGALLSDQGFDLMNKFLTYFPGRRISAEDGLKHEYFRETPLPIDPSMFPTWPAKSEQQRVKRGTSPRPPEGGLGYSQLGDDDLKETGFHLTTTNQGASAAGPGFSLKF

[5] = biological target: Tyrosine-protein kinase FRK (Homo sapiens) (UniProt P42685); details: at 10 µM
[6] = biological target: TRAF2 and NCK-interacting protein kinase (Homo sapiens) (UniProt Q9UKE5); assay: Selectivity interaction (ActivX KiNativ screen (ex vivo kinase selectivity in human PBMCs)) EUB0001619a TNIK; format: cell-based; details: PBMC, at 1 µM
Chain of TRAF2 and NCK-interacting protein kinase (Homo sapiens) (Q9UKE5 whole entry, looked up): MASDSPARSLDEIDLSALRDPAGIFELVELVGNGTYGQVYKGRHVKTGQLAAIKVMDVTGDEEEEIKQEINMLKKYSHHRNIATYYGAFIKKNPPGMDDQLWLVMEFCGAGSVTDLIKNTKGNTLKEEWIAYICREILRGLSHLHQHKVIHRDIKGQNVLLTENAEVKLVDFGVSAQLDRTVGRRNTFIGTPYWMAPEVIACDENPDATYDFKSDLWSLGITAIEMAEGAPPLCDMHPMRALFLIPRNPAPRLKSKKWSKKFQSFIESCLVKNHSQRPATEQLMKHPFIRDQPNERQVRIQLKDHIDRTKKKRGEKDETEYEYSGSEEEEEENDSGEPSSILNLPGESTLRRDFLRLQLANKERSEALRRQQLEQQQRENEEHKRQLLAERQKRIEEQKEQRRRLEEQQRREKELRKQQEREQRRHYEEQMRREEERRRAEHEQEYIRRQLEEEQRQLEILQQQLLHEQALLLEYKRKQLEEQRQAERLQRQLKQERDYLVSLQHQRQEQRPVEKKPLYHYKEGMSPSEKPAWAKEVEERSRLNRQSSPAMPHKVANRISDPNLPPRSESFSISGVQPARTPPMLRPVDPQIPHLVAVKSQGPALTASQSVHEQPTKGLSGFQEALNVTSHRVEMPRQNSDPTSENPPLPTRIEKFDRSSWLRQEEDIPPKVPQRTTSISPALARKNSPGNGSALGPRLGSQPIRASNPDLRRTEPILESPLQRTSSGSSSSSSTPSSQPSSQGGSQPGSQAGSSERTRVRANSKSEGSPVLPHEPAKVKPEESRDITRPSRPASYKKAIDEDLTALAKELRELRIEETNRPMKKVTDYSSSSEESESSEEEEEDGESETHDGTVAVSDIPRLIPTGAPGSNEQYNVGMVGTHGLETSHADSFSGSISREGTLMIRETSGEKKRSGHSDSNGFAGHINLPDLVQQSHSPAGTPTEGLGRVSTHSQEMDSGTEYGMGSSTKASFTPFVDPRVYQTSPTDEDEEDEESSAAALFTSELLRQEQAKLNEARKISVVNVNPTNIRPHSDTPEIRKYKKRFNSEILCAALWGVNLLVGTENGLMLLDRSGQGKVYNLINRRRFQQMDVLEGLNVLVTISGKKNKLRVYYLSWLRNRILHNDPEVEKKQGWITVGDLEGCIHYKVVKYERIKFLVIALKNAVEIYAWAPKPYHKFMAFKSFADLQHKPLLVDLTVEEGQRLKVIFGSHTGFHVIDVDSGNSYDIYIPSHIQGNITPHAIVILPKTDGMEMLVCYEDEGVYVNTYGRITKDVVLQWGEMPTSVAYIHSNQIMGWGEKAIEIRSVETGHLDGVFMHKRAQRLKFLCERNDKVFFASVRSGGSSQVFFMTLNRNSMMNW

Chain of Tyrosine-protein kinase FRK (Homo sapiens) (P42685 whole entry): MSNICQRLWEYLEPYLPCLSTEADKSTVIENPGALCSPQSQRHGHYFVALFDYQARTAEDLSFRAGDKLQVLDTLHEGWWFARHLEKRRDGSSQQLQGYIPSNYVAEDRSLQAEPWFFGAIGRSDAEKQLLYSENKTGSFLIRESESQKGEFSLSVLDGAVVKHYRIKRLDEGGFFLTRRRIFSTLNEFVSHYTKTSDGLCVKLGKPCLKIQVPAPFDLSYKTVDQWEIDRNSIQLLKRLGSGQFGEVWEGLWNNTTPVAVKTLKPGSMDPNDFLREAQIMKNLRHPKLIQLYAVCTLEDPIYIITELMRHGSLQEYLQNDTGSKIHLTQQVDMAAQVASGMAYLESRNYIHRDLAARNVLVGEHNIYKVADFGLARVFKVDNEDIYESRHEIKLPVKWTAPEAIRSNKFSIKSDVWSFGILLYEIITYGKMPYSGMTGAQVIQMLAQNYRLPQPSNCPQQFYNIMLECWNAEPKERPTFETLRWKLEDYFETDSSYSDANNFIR
Chain of Mitogen-activated protein kinase 1 (P28482 whole entry): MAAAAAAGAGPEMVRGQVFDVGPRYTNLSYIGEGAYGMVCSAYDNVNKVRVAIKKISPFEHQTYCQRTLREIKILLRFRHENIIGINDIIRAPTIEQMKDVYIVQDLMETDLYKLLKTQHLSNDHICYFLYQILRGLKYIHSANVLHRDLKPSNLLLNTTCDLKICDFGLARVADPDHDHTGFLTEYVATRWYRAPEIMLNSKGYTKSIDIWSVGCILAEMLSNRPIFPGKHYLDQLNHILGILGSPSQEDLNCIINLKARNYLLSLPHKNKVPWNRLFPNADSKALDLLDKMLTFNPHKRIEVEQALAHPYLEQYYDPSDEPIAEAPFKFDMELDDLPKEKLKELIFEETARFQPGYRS
Chain of Calcium/calmodulin-dependent protein kinase type II subunit gamma (Homo sapiens) (Q13555 whole entry): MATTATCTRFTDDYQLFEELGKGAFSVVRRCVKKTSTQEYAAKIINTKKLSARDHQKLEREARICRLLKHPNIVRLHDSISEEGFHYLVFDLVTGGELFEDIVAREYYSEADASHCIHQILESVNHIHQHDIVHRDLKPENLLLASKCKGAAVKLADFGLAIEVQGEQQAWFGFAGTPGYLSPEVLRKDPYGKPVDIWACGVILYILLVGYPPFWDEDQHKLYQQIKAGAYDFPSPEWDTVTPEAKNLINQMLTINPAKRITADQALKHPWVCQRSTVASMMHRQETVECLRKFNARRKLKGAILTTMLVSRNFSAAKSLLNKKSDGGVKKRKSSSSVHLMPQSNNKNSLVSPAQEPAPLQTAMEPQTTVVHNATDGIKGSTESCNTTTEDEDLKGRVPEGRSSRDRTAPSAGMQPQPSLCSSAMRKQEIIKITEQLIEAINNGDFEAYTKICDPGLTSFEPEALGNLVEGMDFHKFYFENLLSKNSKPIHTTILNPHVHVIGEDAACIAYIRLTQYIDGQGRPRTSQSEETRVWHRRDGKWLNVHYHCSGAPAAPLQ

% of control [1]: 86%
SMILES: CC(=O)Nc1cccc(-n2c(=O)n(C3CC3)c(=O)c3c(Nc4ccc(I)cc4F)n(C)c(=O)c(C)c32)c1

SMILES: COc1cc(N(C)c2ccnc3ccc(C(F)(F)F)cc23)cc(OC)c1OC
% binding [2]: 87%

SMILES: CCC(=O)N1CCN(c2ccc(-n3c(=O)ccc4cnc5ccc(-c6cnc7ccccc7c6)cc5c43)cc2C(F)(F)F)CC1
% of control [3]: 79%
% of control [4]: 1.2%

SMILES: Cc1cc([C@@H](C)Nc2ccccc2C(=O)O)c2nc(N3CCOCC3)cc(=O)n2c1 [AZD-6482]
% of control [5]: 83%

SMILES: N#Cc1cccc(-c2c[nH]c3ncnc(N4CCOCC4)c23)c1
% of inhibition [6]: 29%
